US20250296938A1, “Compounds that Interact with the Ras Superfamily for the Treatment of Cancers, Inflammatory Diseases, Rasopathies, and Fibrotic Disease” (SHY Therapeutics, LLC, priority 2018, published 2025)
Where two headings read alike, the source gives them in different places. Values belong to the molecule of their own block, whether it stands above or below them.

Tests used:
Assay in all cases: Ras GTP binding domain inhibition assay (Cy3-GTP/Cy5-GTP competition)
KRas G12D mutant = biological target: T1, KRas G12D mutant (Homo sapiens, UniProt P01116, G12D); settings: for IC50: cell-free, 100 nM Cy3-GTP or Cy5-GTP
T1 construct: fused on or other part: His tag, used for capture on nickel-coated plates
Procedure: (§1) The following method was developed as specific assay for the following proteins: KRas wild type, KRas Q61H mutant, KRas G12C mutant, KRas G12D mutant, HRas wild type, Rac-1, and Rho-A.
(§2) • 25 mM Tris-HCl, pH 7.4 • 27 mM KCl • 137 mM NaCl • 1 mM MgCl2 • 1 mM DTT
(§3) • 50 mM Tris-HCl, pH 7.0 • 1 mM MgCl2 • 1 mM DTT
(§4) The small GTPases proteins: KRas wild type. KRas Q61H mutant, KRas G12C mutant, KRas G12D mutants, HRas wild type, Rac-1, and Rho-A were expressed as His-tagged proteins. In addition, the Guanosine nucleotide Exchange Factor (GEF) Sos protein (residues 556-1049) was expressed as a His-tagged protein. In cells, the guanine nucleotide exchange factor Sos protein promotes activation of Ras proteins by stimulating an exchange of GDP for GTP. The inclusion of Sos to the Ras GTP binding domain inhibition assay may be considered as an alternative representation of physiological cellular conditions for evaluating the inhibitory activity of some of the tested small molecules.
(§5) For the assay, all purified small GTPases proteins were diluted in Buffer-I or Buffer-II to a final concentration of 10-30 μg/mL. 200 μL of each diluted protein was added to a nickel-coated 96-well plate and incubated overnight at 4° C. Then the protein solution was discarded and 200 μL of Buffer-I or Buffer-II was added to each well in the presence of 1% DMSO. Compounds to be tested were added to the protein-coated wells at final concentration of 20 μM, and incubated for 3 hours at room temperature with and without […] of Sos added to the final hour of the incubation. When performing IC50 measurements a serial dilution of all tested concentrations was added. Then Cy3-GTP or Cy5-GTP was added to each well to a final concentration of 100 nM. The labeled GTP was incubated for 45 minutes at room temperature. Following GTP incubation, wells were washed 3× in Buffer-I or Buffer-II and 200 μL of Buffer-I or Buffer-II was added to each well. Following washes, the amount of bound labeled-GTP was measured using a SpectraMax M3 (Molecular Devices).

KRas wild type = tested on: KRas wild type; design: species or system human; settings: 20 μM; for KRas wild type + SOS: % inh.: with SOS (Table 7A); for KRas wild type % inh.: without SOS (Table 7A)
Procedure: as §1, §2, §3, §4, §5

KRas Q61H mutant = tested on: KRas Q61H mutant; design: species or system human; settings: 20 μM; for KRas Q61H mutant + SOS: % inh.: with SOS (Table 7A); for KRas Q61H mutant: % inh.: without SOS (Table 7A)
Procedure: as §1, §2, §3, §4, §5

[1] = at 20 μM, with SOS, read-out: KRas G12D mutant + SOS: % inh.
[2] = at 20 μM, without SOS, read-out: KRas G12D mutant: % inh.
[3] = 20 μM, with SOS (Table 7A), read-out: KRas G12D mutant + SOS: % inh.
[4] = 20 μM, without SOS (Table 7A), read-out: KRas G12D mutant: % inh.

IC50 (KRas G12D mutant): 5 to 10 µM
SMILES: CO[C@H]1CC[C@@H](Nc2nc(-c3nccn3C)nc3sc(C(=O)NC(C)C)c(-c4ccccc4)c23)C1 [drawing 1072]

IC50 (KRas G12D mutant): 5 to 10 µM
SMILES: Cc1c(-c2ccn(C)n2)sc2nc(-c3nccn3C)nc(NCCCC(=O)N(C)C)c12 [drawing 1065]

IC50 (KRas G12D mutant): 5 to 10 µM
SMILES: CO[C@H]1CC[C@@H](Nc2nc(-c3nccn3C)nc3sc(C(=O)N4CCCC4)c(-c4ccccc4)c23)C1 [drawing 1074]

IC50 (KRas G12D mutant): 5 to 10 µM
SMILES: COCCNC(=O)c1sc2nc(-c3nccn3C)nc(N[C@@H]3CC[C@H](OC)C3)c2c1-c1ccccc1 [drawing 1073]

IC50 (KRas G12D mutant): 5 to 10 µM
SMILES: Cc1c(-c2ccn(C)n2)sc2nc(-c3nccn3C)nc(NCCOC(=O)N(C)C)c12 [drawing 1066]

IC50 (KRas G12D mutant): 5 to 10 µM
SMILES: COCCNC(=O)c1sc2nc(-c3nccn3C)nc(N[C@H]3C[C@@H](OC)C3)c2c1-c1ccccc1 [drawing 1069]

Second part, the molecule before the results:

SMILES: CO[C@H]1CC[C@@H](Nc2nc(-c3nccn3C)nc3sc(-c4ccn(C(C)C)n4)c(C4=CC=CCC=C4)c23)C1 [drawing 1063]
IC50 (KRas G12D mutant): 1 to 4.99 µM

SMILES: COc1c(F)cccc1-c1sc2nc(-c3nccn3C)nc(N[C@@H]3CC[C@H](OC)C3)c2c1-c1ccccc1 [drawing 1022]
inhibition at 20 µM (KRas G12D mutant; [1]): 76 to 100%
inhibition at 20 µM (KRas G12D mutant; [2]): 76 to 100%

SMILES: COc1cccc(-c2sc3nc(-c4nc(C)cn4C)nc(N[C@@H]4CC[C@H](OC)C4)c3c2C)c1F [drawing 1031]
inhibition at 20 µM (KRas G12D mutant; [1]): 26 to 50%
inhibition at 20 µM (KRas G12D mutant; [2]): 1 to 25%

SMILES: Cc1c(-c2ccn(C)n2)sc2nc(-c3nccn3C)nc(NCCCS(C)(=O)=O)c12 [drawing 1064]
IC50 (KRas G12D mutant): 5 to 10 µM

SMILES: COc1cccc(-c2sc3nc(-c4nccn4C)nc(N[C@@H]4CC[C@H](OC)C4)c3c2C)c1F [drawing 894]
KRas wild type + SOS: % inh. (KRas wild type): D (76-100% inhibition)
KRas wild type % inh. (KRas wild type): C (51-75% inhibition)
KRas Q61H mutant + SOS: % inh. (KRas Q61H mutant): D (76-100% inhibition)
KRas Q61H mutant: % inh. (KRas Q61H mutant): C (51-75% inhibition)
inhibition at 20 µM (KRas G12D mutant; [3]): 51 to 75%
inhibition at 20 µM (KRas G12D mutant; [4]): 51 to 75%

SMILES: COc1cccc(-c2sc3nc(-c4nccn4C)nc(N[C@@H]4CC[C@H](OC)C4)c3c2-c2ccccc2)c1F [drawing 884]
KRas wild type + SOS: % inh. (KRas wild type): D (76-100% inhibition)
KRas wild type % inh. (KRas wild type): C (51-75% inhibition)
KRas Q61H mutant + SOS: % inh. (KRas Q61H mutant): D (76-100% inhibition)
KRas Q61H mutant: % inh. (KRas Q61H mutant): C (51-75% inhibition)
inhibition at 20 µM (KRas G12D mutant; [3]): 51 to 75%
inhibition at 20 µM (KRas G12D mutant; [4]): 51 to 75%

SMILES: COc1cccc(-c2sc3nc(-c4nc(C)cn4C)nc(N[C@@H]4CC[C@H](OC)C4)c3c2C)c1F [drawing 896]
KRas wild type + SOS: % inh. (KRas wild type): B (26-50% inhibition)
KRas wild type % inh. (KRas wild type): A (1-25% inhibition)
KRas Q61H mutant + SOS: % inh. (KRas Q61H mutant): B (26-50% inhibition)
KRas Q61H mutant: % inh. (KRas Q61H mutant): A (1-25% inhibition)
inhibition at 20 µM (KRas G12D mutant; [3]): 26 to 50%
inhibition at 20 µM (KRas G12D mutant; [4]): 1 to 25%

SMILES: COc1c(F)cccc1-c1sc2nc(-c3nccn3C)nc(N[C@@H]3CC[C@H](OC)C3)c2c1-c1ccccc1 [drawing 887]
KRas wild type + SOS: % inh. (KRas wild type): D (76-100% inhibition)
KRas wild type % inh. (KRas wild type): D (76-100% inhibition)
KRas Q61H mutant + SOS: % inh. (KRas Q61H mutant): D (76-100% inhibition)
KRas Q61H mutant: % inh. (KRas Q61H mutant): D (76-100% inhibition)
inhibition at 20 µM (KRas G12D mutant; [3]): 76 to 100%
inhibition at 20 µM (KRas G12D mutant; [4]): 76 to 100%

SMILES: COc1cccc(-c2sc3nc(-c4nccn4C)nc(N[C@@H]4CC[C@H](C=O)C4)c3c2-c2ccccc2)c1F (racemic)
inhibition at 20 µM (KRas G12D mutant; [1]): 51 to 75%
inhibition at 20 µM (KRas G12D mutant; [2]): 51 to 75%
